# Assay results as given in patent US20190254276A1 (priority 2010, published 2019).
# Read-outs that look alike come from different tables or passages of the source.
# What was measured:
# BVDV = details: 45% PG eluate; for Titre: Standard titration; for Reduction Factor: vs T0
# TGEV = details: 45% PG eluate; for Reduction Factor: vs T0
substance,measurement,setting,value
"propane-1,2-diol [PG]",Clearance Factor,"BVDV; Run 1, T = 0 Load Sample",0.43 log
same,Clearance Factor,"BVDV; Run 1, T = 5 min",165 log
same,Log10TICD50 (total viral load),"BVDV; Run 1, T = 5 min",4.53 Log10TICD50
same,Titre,"BVDV; Run 1, T = 5 min",18 log10TCID50/ml
same,Reduction Factor,"BVDV; Run 1, T = 5 min",122 log
same,Clearance Factor,"BVDV; Run 1, T = 15 min",13 log
same,Log10TICD50 (total viral load),"BVDV; Run 1, T = 15 min",6.50 Log10TICD50
same,Reduction Factor,"BVDV; Run 1, T = 15 min",0.97 log
same,Clearance Factor,"BVDV; Run 1, T = 60 min",13 log
same,Log10TICD50 (total viral load),"BVDV; Run 1, T = 60 min",4.90 Log10TICD50
same,Reduction Factor,"BVDV; Run 1, T = 60 min",0.97 log
same,Clearance Factor,"BVDV; Run 1, T = 180 min",13 log
same,Log10TICD50 (total viral load),"BVDV; Run 1, T = 180 min",4.58 Log10TICD50
same,Reduction Factor,"BVDV; Run 1, T = 180 min",0.97 log
same,Clearance Factor,"BVDV; Run 2, T = 0 Load Sample",0.44 log
same,Log10TICD50 (total viral load),"BVDV; Run 2, T = 0 Load Sample",5.78 Log10TICD50
same,Titre,"BVDV; Run 2, T = 25",132 log10TCID50/ml
same,Reduction Factor,"BVDV; Run 2, T = 25",171 log
same,Clearance Factor,"BVDV; Run 2, T = 5 min",188 log
same,Titre,"BVDV; Run 2, T = 5 min",159 log10TCID50/ml
same,Reduction Factor,"BVDV; Run 2, T = 5 min",144 log
same,Clearance Factor,"BVDV; Run 2, T = 60 min",168 log
same,Titre,"BVDV; Run 2, T = 60 min",189 log10TCID50/ml
same,Reduction Factor,"BVDV; Run 2, T = 60 min",144 log
same,Clearance Factor,"TGEV; Run 1, T = 0 Load Sample",0.07 log
same,Titre,"TGEV; Run 1, T = 0 Load Sample, Standard titration",5.12 log10 TCID50/ml
same,Clearance Factor,"TGEV; Run 1, T = 5 min",124 log
same,Log10TICD50 (total viral load),"TGEV; Run 1, T = 5 min",5.21 Log10TICD50
same,Titre,"TGEV; Run 1, T = 5 min, Standard titration",3.95 log10 TCID50/ml
same,Reduction Factor,"TGEV; Run 1, T = 5 min",1.0 log
same,Titre,"TGEV; Run 1, T = 15 min, Standard titration",2.78 log10 TCID50/ml
same,Titre,"TGEV; Run 1, T = 60 min, Standard titration",132 log10 TCID50/ml
same,Reduction Factor,"TGEV; Run 1, T = 60 min",3.0 log
same,Clearance Factor,"TGEV; Run 1, T = 180 min",4.38 log
same,Log10TICD50 (total viral load),"TGEV; Run 1, T = 180 min",3.08 Log10TICD50
same,Titre,"TGEV; Run 1, T = 180 min, Standard titration",0.8 log10 TCID50/ml
same,Titre,"TGEV; Run 1, T = 360 min, Standard titration",<0.8 log10 TCID50/ml
same,Clearance Factor,"TGEV; Run 2, T = 0 Load Sample",0.08 log
same,Titre,"TGEV; Run 2, T = 0 Load Sample, Standard titration",5.28 log10 TCID50/ml
same,Titre,"TGEV; Run 2, T = 5 min, Standard titration",4.26 log10 TCID50/ml
same,Reduction Factor,"TGEV; Run 2, T = 5 min",1 log
same,Log10TICD50 (total viral load),"TGEV; Run 2, T = 15 min",5.40 Log10TICD50
same,Titre,"TGEV; Run 2, T = 15 min, Standard titration",3.2 log10 TCID50/ml
same,Reduction Factor,"TGEV; Run 2, T = 15 min",8.05 log
same,Clearance Factor,"TGEV; Run 2, T = 60 min",4.50 log
same,Titre,"TGEV; Run 2, T = 60 min, Standard titration",0.8 log10 TCID50/ml
same,Reduction Factor,"TGEV; Run 2, T = 60 min",4.45 log
same,Titre,"TGEV; Run 2, T = 180 min, 1 LVP (96 wells)",−0.12 log10 TCID50/ml
same,Reduction Factor,"TGEV; Run 2, T = 180 min, LVP",5.4 log
same,Titre,"TGEV; Run 2, T = 360 min, 1 LVP (96 wells)",<−0.12 log10 TCID50/ml
same,Reduction Factor,"TGEV; Run 2, T = 360 min, LVP",>5.40 log
